Measurements as given in US20090137390A1, “Materials and methods for enhancing nitrogen fixation in plants” (priority 2004, published 2009).
“Also recorded” adds a separate entry of the source.

Legend:
PR1::GUS = assay: GUS histochemical staining and GUS fluorogenic assay in PR1::GUS plants; assay type: in vivo, Arabidopsis thaliana; conditions: histochemical staining and fluorogenic assays
Experimental: GUS histochemical staining and GUS fluorogenic assay. Roots of transgenic Arabidopsis thaliana Col-0 harboring a pathogenesis-related 1 (PR1) gene promoter fused to the bacterial uidA (β-glucuronidase) reporter gene (PR1::GUS) were inoculated with 10^7 CFU S. enterica 14028, the 14028 sipB mutant, and the complemented sipB mutant,. Exogenous application of salicylic acid (5 mM) and infiltration of leaves with 10^7 CFU of an avirulent strain of P. syringae DC3000 carrying the avrRpt2 on plasmid PV288 were used as positive controls (Kunkel et al., 1993; Ton et al., 2002). The histochemical assay was performed as described by Sundaresan et al. (1995) with slight modifications (Sundaresan et al., 1995). Plants were immersed in staining buffer (50 mM sodium phosphate pH7, 10 mM EDTA, 0.1% Triton X-100, 100 μg/ml chloramphenicol, 5 mM potassium ferricyanide and 0.5 mg/ml 5-bromo-4-chloro-3-indolyl-β-D-glucuronide (X-Glc). Plants were then vacuum infiltrated, incubated overnight at 37° C., and destained with 70% ethanol.
To conduct the quantitative GUS fluorogenic assay, whole plants were flash-frozen in liquid N2 and crushed. The fluorogenic assay and protein extraction were done as described by (Jefferson et al, 1987). Protein concentration of the samples was determined using a BCA protein assay kit (PIERCE, Rockford, Ill.).

Triticum aestivum roots = assay: Endophytic colonization of wheat seedlings (CFU recovered from interior of roots and hypocotyls); assay type: in vivo; conditions: varying amounts of ACC
Source text: (§1) Bacterial strains and inoculum preparation. BA3104 was constructed by sequential P22 transduction into 14028 using a P22HTint lysate grown on the SL3201 fliC::Tn10 fliB::MudJ strain kindly provided by Dr. Allison O'Brien (Schmitt et al., 2001). pHC112 was constructed by amplifying the spaS gene of 14028 (nucleotides 28 to 1327 of GenBank accession number AE008832) using Taq DNA polymerase. The spaS fragment was cloned into pCR-2.1-TOPO (Invitrogen), removed using EcoRI, and cloned into the EcoRI site of pWSK29 (Wang and Kushner 1991). pHC113 was constructed in the same way except that the sipB gene was amplified (nucleotides 18133 to 20138 of GenBank accession number AE008831). Bacterial strains were cultured and inoculum prepared as described previously (Dong et al., 2003a; Dong et al., 2003b) with the exception of the experiments designed to estimate the number of infection events. For these experiments the inoculum strains were composed of a mixture of either 14028 or Kp342 with and without a constitutively expressed GFP gene.
(§2) Seed surface sterilization, germination, inoculation, plant culture and harvest. The manipulation of plants, from seed surface sterilization to plant harvest, were carried out by methods developed previously (Dong et al., 2003a; Dong et al., 2003b).
Determination of microbial population within surface sterilized plant tissue. […]

[1] = test system: Medicago truncatula roots and hypocotyls; assay: Endophytic colonization of Medicago truncatula seedlings (CFU recovered from interior); assay type: in vivo
Source text: as §1, §2
(§3) Determination of microbial population within surface sterilized plant tissue. With the exception of the M. truncatula sickle experiment, where the whole plant tissue was used to determine microbial populations, only the root and hypocotyl were examined for bacterial colonization. The procedures used for surface sterilization, determination of endophytic microbial populations and statistical analysis were done as described previously (Dong et al., 2003a; Dong et al., 2003b).
(§4) Assurance of endophytic colonization results. To ensure the endophytic colonization numbers presented reflect only the number of cells within the interior of plant tissue, previously developed methods were followed (Dong et al., 2003a; Dong et al., 2003b).
Induction of ethylene response in seedlings. To induce ethylene responses, seedlings were cultured in growth medium as described previously (Dong et al., 2003a) supplemented with 5 μM 1-aminocyclopropane-1-carboxylic acid (ACC). ACC was dissolved in water and filter sterilized prior to its addition to autoclaved plant growth media. In most experiments, seedlings were exposed to media containing ACC for 12 hours prior to inoculation.
Preparation and use of 1-methylcyclopropene (1-MCP). The gaseous ethylene action inhibitor, 1-MCP, was prepared and stored as described by Hall et al. (2000). 1-MCP was generated from ETHYLBLOC, which was provided by A. B. Bleecker (University of Wisconsin—Madison). The concentration of 1-MCP in ETHYLBLOC is of 0.14%. A stock of 1-MCP of 100 ppm was created in a serum bottle of 121.5 ml in volume. This was accomplished by adding 19.44 mg of ETHYLBLOC and 0.5 ml of hot H2O to the serum bottle and set to rest for 15 minutes. The stock was used to dispense 0.3 ml of headspace gas to 30 ml stopped test tubes where the plants were cultured, resulting in a final concentration of 1 ppm per tube. The plant cultures were placed under conditions as described previously (Dong et al., 2003a; Dong et al., 2003b) with the exception of a rubber stopper used to conceal 1-MCP. The stoppers were removed daily, flushed with air, stopped again and finally freshly prepared 1-MCP was added to the desired final concentration.

[2] = test system: Medicago sativa roots and hypocotyls; assay: Endophytic colonization of alfalfa seedlings (CFU recovered from interior of roots and hypocotyls); assay type: in vivo
Source text: as §1, §2, §3, §4
Induction of ethylene response in seedlings. […]

In the case of `O=C(O)c1ccccc1O` [salicylic acid], the “PR1::GUS induction / expression” value (PR1::GUS) is reported as “strongly induced”.

In the case of `NC1(C(=O)O)CC1` [ACC, 1-aminocyclopropane-1-carboxylic acid], the “Decline in number of cells within wheat roots” value (Triticum aestivum roots; 14028 cells) is reported as 1.2 orders of magnitude, the “Decline in number of cells within wheat roots” value (Triticum aestivum roots; Kp342 cells) is reported as 1.85 orders of magnitude and the “Number of Kp342 cells within roots over time with ACC treatment” value ([1]; 5 μM ACC at inoculation, 10^2 cells of Kp342 per plant, days 0-6) is reported as “statistically different from the controls on days 4, 5, and 6; also recorded: does not change significantly with ACC treatment until four days after inoculation”. For the same compound, the “Reduction of endophytic colonization” value ([2]; colonization by S. typhimurium 14028, wild-type M. sativa, ACC in growth media (5 μM)) was “four” and the “Decrease of endophytic colonization” value ([2]; wild-type strain (14028), FIG. 6) was “over two orders of magnitude”.

In the case of `C=C` [ethylene], the “Endophytic colonization in plants exposed to C2H4 or ACC for the same time period” value ([1]; 5 μM, Kp342) is reported as “No difference in endophytic colonization”, the “Time of application needed for maximal inhibition of endophytic colonization” value ([1]; C2H4 5 μM applied from one day prior to up to 6 days after inoculation) is reported as “prior to, or at the time of inoculation” and the “Time after exposure at which effects on endophytic colonization become significant” value ([1]; Kp342) is reported as 96 h.

For `CC1=CC1` [1-MCP, 1-methylcyclopropene], the “Endophytic colonization upon treatment” value ([1]; 1 ppm 1-MCP, regardless of presence or absence of exogenous ACC, Kp342) was “significantly higher endophytic colonization” and the “Effect on the ACC-induced reduction in endophytic colonization of alfalfa” value ([2]; 1 ppm 1-MCP, 5 μM ACC) was “reversed the reduction in endophytic colonization of alfalfa observed with ACC”.
